In patent publication US7074789B2, “Kinase inhibitors” (Amgen Inc., priority 1999, dated 2006) one finds IC50 data, which are given here for 15 molecules.

Assay type in all cases: biochemical
For one experiment, the target named is T1, Hck-1 (Homo sapiens, UniProt P08631).
T1 construct: Kinases are expressed as either kinase domains or full length constructs; made in house
The experiment in a line: Kinase inhibition assay (33P transfer), Hck. The conditions noted are these: Table 6, Hck-1 kinase inhibition class.

A further experiment concerns the target T2, EGFR (Homo sapiens, UniProt P00533).
T2 construct: Kinases are expressed as either kinase domains or full length constructs; made in house
The experiment in a line: Kinase inhibition assay (33P transfer), EGFR. The conditions noted are these: Table 2, kinase inhibition class; read-out: EGFR-1. The gist of the method: (§1)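 GST/His-fusion kinases, E. coli or High Five expressed, affinity purified; 33P-ATP, plate-coated poly(Glu,Tyr) 4:1 or poly(Arg,Ser) 3:1; 0.5% H3PO4 wash, scintillant, LSC.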

For another experiment, the target named is T3, Zap-70 (Homo sapiens, UniProt P43403).
T3 construct: Kinases are expressed as either kinase domains or full length constructs; made in house
T3 sequence (P43403 1-619): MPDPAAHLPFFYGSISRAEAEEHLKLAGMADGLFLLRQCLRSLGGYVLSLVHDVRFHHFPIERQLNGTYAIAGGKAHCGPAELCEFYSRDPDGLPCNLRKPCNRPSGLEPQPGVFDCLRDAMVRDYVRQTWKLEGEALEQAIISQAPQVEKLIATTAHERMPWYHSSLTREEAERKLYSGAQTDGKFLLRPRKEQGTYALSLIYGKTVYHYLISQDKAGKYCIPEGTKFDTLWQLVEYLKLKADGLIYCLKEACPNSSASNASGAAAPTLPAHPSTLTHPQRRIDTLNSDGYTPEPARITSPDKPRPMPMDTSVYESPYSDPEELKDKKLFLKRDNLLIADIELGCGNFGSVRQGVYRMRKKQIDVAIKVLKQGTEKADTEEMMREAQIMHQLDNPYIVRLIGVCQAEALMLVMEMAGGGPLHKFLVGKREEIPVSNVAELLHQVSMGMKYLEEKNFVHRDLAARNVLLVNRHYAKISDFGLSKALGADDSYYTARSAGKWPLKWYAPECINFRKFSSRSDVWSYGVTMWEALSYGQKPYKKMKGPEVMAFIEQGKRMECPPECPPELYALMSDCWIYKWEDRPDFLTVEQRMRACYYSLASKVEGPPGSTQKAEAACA
The experiment can be described thus: Kinase inhibition assay (33P transfer), Zap-70. The conditions noted are these: Table 3; read-out: Zap-1. The gist of the method: (§2)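 Recombinant kinase-domain or full-length fusion proteins (GST or His tag) served as enzyme. Substrate poly(Glu,Tyr) 4:1 or poly(Arg,Ser) 3:1 was bound to the plate; transferred 33P was read by liquid scintillation following acid washing.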

For another experiment, the target named is T4, Ret-1 (Homo sapiens, UniProt P07949).
T4 construct: Kinases are expressed as either kinase domains or full length constructs; made in house
The experiment in a line: Kinase inhibition assay (33P transfer), Ret. The conditions noted are these: Table 6, Ret-1 kinase inhibition class.

The target in a further experiment is T5, Src (Homo sapiens, UniProt P12931).
T5 construct: Kinases are expressed as either kinase domains or full length constructs; made in house
The experiment in a line: Kinase inhibition assay (33P transfer), Src. The conditions noted are these: Table 6, Src-1 kinase inhibition class. The gist of the method: as §1

The next experiment deals with T6, Tek (Homo sapiens, UniProt Q02763).
T6 construct: Kinases are expressed as either kinase domains or full length constructs; made in house
The experiment in a line: Kinase inhibition assay (33P transfer), Tek. The conditions noted are these: read-out: Tek-1. The gist of the method:
as §1

The next experiment concerns the target T7, EPHB4 (Homo sapiens, UniProt P54760).
T7 construct: Kinases are expressed as either kinase domains or full length constructs; made in house
T7 sequence (P54760 16-987): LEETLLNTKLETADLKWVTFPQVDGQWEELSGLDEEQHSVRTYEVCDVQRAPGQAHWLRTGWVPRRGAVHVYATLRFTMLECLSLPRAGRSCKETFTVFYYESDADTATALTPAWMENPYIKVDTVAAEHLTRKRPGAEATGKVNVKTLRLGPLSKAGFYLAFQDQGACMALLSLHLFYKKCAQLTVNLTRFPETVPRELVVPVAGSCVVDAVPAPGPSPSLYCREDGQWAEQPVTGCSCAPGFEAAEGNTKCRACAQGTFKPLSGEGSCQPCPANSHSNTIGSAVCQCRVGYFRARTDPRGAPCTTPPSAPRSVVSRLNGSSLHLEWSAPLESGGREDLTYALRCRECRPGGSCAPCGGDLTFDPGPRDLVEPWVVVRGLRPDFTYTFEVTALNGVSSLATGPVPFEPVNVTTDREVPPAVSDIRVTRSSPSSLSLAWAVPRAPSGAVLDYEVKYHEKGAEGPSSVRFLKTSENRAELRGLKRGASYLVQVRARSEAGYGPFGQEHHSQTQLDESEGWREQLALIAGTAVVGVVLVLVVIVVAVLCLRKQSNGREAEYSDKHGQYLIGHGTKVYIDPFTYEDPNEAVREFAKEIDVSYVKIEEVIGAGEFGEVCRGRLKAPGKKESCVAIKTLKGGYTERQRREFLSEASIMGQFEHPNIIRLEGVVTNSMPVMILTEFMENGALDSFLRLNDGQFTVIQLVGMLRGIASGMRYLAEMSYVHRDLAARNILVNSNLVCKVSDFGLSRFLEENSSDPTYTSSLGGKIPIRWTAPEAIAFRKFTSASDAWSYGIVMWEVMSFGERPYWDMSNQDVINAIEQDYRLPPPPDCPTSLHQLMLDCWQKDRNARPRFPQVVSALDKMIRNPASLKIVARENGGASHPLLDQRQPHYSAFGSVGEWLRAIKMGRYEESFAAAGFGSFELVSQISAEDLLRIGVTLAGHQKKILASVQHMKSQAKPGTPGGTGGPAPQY
The experiment can be described thus: Kinase inhibition assay (33P transfer), EPHB4. The conditions noted are these: read-out: EPHB4-1.

The target of another experiment is T8, Lck (Homo sapiens, UniProt P06239).
T8 construct: Kinases are expressed as either kinase domains or full length constructs; made in house
The experiment in a line: Kinase inhibition assay (33P transfer), Lck. The conditions noted are these: Table 3; read-out: Lck-1. The gist of the method: as §2

Another experiment has as its target T9, Lyn (Homo sapiens, UniProt P07948).
T9 construct: Kinases are expressed as either kinase domains or full length constructs; made in house
The experiment can be described thus: Kinase inhibition assay (33P transfer), Lyn. The conditions noted are these: Table 6, Lyn-1 kinase inhibition class. An outline of the steps:
as §1

Structures are written as SMILES.

T2 sequence (P00533 25-1210, species assumed): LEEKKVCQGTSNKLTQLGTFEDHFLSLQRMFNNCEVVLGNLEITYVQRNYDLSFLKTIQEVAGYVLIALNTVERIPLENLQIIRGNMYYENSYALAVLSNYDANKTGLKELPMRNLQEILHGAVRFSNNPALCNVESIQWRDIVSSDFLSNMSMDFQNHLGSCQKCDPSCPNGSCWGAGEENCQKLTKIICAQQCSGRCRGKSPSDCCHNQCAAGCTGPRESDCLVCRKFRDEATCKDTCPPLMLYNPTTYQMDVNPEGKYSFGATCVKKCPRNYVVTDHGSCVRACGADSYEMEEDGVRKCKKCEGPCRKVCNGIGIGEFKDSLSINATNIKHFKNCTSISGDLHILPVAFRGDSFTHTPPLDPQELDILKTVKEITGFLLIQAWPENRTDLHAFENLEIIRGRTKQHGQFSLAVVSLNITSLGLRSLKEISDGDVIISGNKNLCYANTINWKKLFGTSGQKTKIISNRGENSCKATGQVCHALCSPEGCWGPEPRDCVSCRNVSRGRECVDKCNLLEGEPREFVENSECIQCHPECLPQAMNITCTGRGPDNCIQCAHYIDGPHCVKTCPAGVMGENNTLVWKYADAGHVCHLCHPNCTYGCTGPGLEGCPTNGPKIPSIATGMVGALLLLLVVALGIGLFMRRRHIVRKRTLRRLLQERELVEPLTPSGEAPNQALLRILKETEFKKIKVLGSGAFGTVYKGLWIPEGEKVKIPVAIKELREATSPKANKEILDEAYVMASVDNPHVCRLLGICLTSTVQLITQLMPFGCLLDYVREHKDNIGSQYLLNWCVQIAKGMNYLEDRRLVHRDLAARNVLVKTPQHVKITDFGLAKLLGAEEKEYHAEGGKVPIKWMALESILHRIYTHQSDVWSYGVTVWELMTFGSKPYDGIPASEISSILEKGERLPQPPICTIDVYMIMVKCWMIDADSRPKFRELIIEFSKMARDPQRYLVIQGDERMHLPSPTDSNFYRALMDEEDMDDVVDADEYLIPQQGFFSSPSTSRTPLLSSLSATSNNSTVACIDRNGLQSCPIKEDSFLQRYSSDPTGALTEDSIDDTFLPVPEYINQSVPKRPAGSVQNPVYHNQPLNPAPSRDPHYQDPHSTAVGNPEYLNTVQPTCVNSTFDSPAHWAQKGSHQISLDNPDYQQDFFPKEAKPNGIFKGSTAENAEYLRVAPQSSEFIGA
T1 sequence (P08631 whole entry, the tested form may be a part): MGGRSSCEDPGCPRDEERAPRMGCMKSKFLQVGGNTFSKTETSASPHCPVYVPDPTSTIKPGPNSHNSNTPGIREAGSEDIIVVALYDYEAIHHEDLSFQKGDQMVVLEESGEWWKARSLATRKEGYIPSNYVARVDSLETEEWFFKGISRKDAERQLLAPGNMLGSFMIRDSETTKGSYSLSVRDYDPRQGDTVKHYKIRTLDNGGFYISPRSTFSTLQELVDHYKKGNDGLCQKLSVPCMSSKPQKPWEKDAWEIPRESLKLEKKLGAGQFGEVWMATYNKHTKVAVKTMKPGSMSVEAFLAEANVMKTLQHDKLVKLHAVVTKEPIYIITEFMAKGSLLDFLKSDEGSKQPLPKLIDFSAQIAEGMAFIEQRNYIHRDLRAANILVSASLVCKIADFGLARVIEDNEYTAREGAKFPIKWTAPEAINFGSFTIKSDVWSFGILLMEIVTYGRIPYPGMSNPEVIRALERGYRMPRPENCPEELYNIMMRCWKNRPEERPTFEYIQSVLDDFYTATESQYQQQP
T5 sequence (P12931 whole entry, species assumed, the tested form may be a part): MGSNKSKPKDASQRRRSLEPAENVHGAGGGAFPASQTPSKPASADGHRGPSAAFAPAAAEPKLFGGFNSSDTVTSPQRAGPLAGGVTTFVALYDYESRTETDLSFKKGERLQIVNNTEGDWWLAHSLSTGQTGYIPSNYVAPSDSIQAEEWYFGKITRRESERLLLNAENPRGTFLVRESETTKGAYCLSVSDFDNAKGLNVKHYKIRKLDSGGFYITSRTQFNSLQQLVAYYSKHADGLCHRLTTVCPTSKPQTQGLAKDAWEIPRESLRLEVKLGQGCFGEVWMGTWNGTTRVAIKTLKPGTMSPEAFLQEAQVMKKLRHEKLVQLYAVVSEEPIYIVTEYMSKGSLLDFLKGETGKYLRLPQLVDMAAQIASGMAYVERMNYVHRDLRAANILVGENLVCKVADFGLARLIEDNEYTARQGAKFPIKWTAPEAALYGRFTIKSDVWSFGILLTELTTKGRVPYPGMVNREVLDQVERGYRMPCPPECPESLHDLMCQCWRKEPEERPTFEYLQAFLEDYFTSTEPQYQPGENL
T6 sequence (Q02763 23-1124, species assumed): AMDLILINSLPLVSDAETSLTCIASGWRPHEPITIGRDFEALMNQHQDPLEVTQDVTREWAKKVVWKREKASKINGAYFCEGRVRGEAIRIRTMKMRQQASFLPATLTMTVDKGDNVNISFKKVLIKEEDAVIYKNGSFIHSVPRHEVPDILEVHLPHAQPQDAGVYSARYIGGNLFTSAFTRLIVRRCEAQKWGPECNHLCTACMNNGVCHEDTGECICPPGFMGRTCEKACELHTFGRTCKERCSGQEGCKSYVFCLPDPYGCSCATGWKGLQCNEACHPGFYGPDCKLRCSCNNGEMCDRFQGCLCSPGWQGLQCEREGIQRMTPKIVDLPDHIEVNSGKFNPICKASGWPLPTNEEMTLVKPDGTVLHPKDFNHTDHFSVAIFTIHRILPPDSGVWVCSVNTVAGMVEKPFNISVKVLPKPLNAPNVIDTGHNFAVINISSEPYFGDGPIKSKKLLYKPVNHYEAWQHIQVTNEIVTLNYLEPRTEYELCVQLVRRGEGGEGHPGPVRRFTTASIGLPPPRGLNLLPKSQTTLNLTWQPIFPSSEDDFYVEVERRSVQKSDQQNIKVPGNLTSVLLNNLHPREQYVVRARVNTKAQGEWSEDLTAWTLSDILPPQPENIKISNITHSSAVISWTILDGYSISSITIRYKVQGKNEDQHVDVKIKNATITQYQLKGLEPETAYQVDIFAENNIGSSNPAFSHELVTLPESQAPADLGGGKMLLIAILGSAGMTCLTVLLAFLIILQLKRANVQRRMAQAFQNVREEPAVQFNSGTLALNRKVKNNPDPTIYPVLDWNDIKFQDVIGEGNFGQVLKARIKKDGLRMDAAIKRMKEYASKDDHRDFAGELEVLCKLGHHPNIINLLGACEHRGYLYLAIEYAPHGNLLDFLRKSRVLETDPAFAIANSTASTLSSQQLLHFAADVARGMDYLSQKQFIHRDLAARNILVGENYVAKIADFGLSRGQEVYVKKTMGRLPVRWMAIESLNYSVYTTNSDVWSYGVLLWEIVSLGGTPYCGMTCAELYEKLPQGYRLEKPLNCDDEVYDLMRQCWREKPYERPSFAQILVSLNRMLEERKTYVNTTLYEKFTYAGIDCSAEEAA
T9 sequence (P07948 whole entry, species assumed, the tested form may be a part): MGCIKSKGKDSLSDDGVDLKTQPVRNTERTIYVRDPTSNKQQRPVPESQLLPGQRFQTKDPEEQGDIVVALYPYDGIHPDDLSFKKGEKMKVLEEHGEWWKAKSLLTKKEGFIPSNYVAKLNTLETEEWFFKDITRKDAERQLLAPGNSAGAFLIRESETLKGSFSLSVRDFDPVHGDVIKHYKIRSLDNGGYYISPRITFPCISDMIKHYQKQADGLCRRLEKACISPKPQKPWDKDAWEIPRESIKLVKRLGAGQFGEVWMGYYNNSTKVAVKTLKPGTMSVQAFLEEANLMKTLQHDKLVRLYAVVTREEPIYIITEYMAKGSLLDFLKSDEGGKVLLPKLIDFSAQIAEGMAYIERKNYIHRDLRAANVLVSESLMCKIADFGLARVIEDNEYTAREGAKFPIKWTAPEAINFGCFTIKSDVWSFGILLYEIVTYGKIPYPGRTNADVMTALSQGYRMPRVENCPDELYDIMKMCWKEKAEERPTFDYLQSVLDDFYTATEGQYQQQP
T4 sequence (P07949 29-1114): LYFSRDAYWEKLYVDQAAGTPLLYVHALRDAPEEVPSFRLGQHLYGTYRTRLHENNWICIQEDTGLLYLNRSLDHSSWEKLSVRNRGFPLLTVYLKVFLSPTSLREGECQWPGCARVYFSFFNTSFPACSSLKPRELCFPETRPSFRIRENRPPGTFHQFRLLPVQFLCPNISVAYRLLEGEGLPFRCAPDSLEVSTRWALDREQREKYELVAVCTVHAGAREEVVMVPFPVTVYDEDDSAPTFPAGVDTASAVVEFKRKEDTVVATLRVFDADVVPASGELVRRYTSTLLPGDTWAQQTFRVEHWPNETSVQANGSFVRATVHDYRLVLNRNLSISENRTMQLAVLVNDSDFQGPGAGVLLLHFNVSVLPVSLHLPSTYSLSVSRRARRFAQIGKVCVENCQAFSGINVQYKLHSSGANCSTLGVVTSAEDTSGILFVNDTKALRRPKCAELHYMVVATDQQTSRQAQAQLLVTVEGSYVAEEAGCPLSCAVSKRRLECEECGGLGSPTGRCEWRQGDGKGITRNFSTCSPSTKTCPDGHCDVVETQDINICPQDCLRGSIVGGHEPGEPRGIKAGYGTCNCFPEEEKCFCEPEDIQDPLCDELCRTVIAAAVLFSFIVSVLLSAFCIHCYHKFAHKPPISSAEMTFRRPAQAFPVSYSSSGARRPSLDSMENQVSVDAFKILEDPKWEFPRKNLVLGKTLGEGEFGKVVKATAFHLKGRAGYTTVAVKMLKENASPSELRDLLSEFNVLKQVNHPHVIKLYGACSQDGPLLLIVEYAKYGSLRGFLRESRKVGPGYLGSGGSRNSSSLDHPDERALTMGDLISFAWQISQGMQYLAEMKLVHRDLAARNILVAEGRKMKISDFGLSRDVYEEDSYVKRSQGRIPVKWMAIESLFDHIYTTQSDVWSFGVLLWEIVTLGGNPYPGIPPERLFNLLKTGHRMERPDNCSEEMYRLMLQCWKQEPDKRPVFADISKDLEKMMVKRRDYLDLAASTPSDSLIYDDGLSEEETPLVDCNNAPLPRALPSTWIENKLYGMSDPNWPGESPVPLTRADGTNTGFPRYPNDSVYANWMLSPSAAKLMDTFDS

Turning to `COc1ccc(Nc2ncnc(Nc3cc(OC)c(OC)c(OC)c3)n2)cc1OC` [Compound 36], the IC50 at Hck-1 is over 10.9 µM; at EGFR, 8.47 to 10.9 µM; at Zap-70, over 10.9 µM; against Ret-1, over 10.9 µM; against Src, over 10.9 µM; on Tek it was 8.47 to 10.9 µM. Also, the values for the IC50 on EPHB4, at Lck and at Lyn were 8.47 to 10.9 µM, 0.968 to 5.81 µM and over 10.9 µM, respectively.

Take `COc1cc(Nc2ncnc(-n3ccc4ccccc43)n2)cc(OC)c1OC` [Compound 185]: the IC50 at Hck-1, on EGFR, at Zap-70, on Ret-1, against Src and at Tek was over 11.9 µM throughout. The IC50 at EPHB4 is over 11.9 µM; on Lck, 6.36 to 9.27 µM; on Lyn, over 11.9 µM.

For the molecule `COc1ccc(Nc2ncnc(Nc3cc(-c4ccco4)n[nH]3)n2)cc1OC` [Compound 337], the IC50 is over 11.9 µM against Hck-1; 1.05 to 6.33 µM at EGFR; over 11.9 µM on Zap-70; under 1.05 µM against Ret-1; 1.05 to 6.33 µM against Src; over 11.9 µM at Tek. The IC50 at EPHB4, on Lck and at Lyn was 1.05 to 6.33 µM each time.

Take `COCCOc1cc(Nc2ncnc(Nc3ccc(C)c(O)c3)n2)ccc1OC` [Compound 127]: the IC50 is 1.01 to 6.04 µM at Hck-1; under 1.01 µM at EGFR; over 11.3 µM at Zap-70; under 1.01 µM against Ret-1; under 1.01 µM against Src; over 11.3 µM on Tek. Moreover, the IC50 at EPHB4 was 8.81 to 11.3 µM; at Lck, 1.01 to 6.04 µM; against Lyn, under 1.01 µM.

In the case of `COc1ccc(Nc2ncnc(-n3c(N)nc4ccccc43)n2)cc1O` [Compound 286], the IC50 was over 12.9 µM against Hck-1; 6.87 to 10 µM on EGFR; over 12.9 µM on Zap-70; under 1.14 µM against Ret-1; 10 to 12.9 µM against Src; 1.14 to 6.87 µM at Tek. The IC50 at EPHB4 was 6.87 to 10 µM; on Lck, 1.14 to 6.87 µM; against Lyn, over 12.9 µM.

As for `NC(=O)c1cccc(Nc2ncnc(Nc3cc(-c4ccco4)n[nH]3)n2)c1` [Compound 342], the IC50 is 6.62 to 9.66 µM against Hck-1; under 1.1 µM on EGFR; over 12.4 µM on Zap-70; under 1.1 µM at Ret-1; over 12.4 µM at Src; over 12.4 µM at Tek. Further, the IC50 at EPHB4, on Lck and against Lyn was 1.1 to 6.62 µM in each case.

For `CCOc1ccc(Nc2ncnc(Nc3ccc(C)c(O)c3)n2)cc1OCC` [Compound 121], the IC50 is over 11.8 µM against Hck-1; 1.05 to 6.29 µM on EGFR; over 11.8 µM on Zap-70; under 1.05 µM on Ret-1; under 1.05 µM on Src; over 11.8 µM at Tek. In addition, the IC50 on EPHB4 was over 11.8 µM; on Lck, 1.05 to 6.29 µM; at Lyn, under 1.05 µM.

For `Cc1cccc(Nc2ncnc(Nc3ccc(O)cc3)n2)c1` [Compound 107], the IC50 is 11.9 to 15.3 µM at Hck-1; under 1.36 µM on EGFR; over 15.3 µM at Zap-70; 1.36 to 8.18 µM against Ret-1; under 1.36 µM on Src; over 15.3 µM at Tek. The IC50 at EPHB4 was 1.36 to 8.18 µM; on Lck, 1.36 to 8.18 µM; at Lyn, under 1.36 µM.

With `COc1cc(Nc2ncnc(Nc3cccc(Cl)c3)n2)cc(OC)c1OC` [Compound 135], the IC50 is over 11.6 µM at Hck-1; under 1.03 µM on EGFR; 9.02 to 11.6 µM at Zap-70; 1.03 to 6.19 µM against Ret-1; under 1.03 µM on Src; 6.19 to 9.02 µM on Tek. In addition, the results for the IC50 on EPHB4, on Lck and against Lyn were under 1.03 µM, 1.03 to 6.19 µM and under 1.03 µM, respectively.

As to `COc1cc(Nc2ncnc(-n3cnc4ccccc43)n2)cc(OC)c1OC` [Compound 186], the IC50 against Hck-1 is over 11.9 µM; on EGFR it was 9.25 to 11.9 µM; on Zap-70, over 11.9 µM; at Ret-1, over 11.9 µM; against Src, over 11.9 µM; on Tek, 9.25 to 11.9 µM. Besides, the figures for the IC50 at EPHB4, at Lck and at Lyn were over 11.9 µM, 1.06 to 6.34 µM and 9.25 to 11.9 µM, respectively.

Turning to `COc1cc(Nc2ncnc(Nc3cc(F)ccc3F)n2)cc(OC)c1OC` [Compound 316], the IC50 on Hck-1 is over 11.6 µM; at EGFR, 1.03 to 6.16 µM; on Zap-70, over 11.6 µM; against Ret-1, 1.03 to 6.16 µM; against Src it was 8.99 to 11.6 µM; on Tek, over 11.6 µM. Besides, the IC50 was 8.99 to 11.6 µM on EPHB4, over 11.6 µM on Lck and 1.03 to 6.16 µM against Lyn.

Consider `COc1cc(Nc2ncnc(-c3ccccc3)n2)cc(OC)c1OC` [Compound 970], for which the IC50 at Hck-1, on EGFR, at Zap-70, against Ret-1, against Src and on Tek was over 13.3 µM each time. Further, the IC50 on EPHB4, on Lck and against Lyn was over 13.3 µM in each case.

As for `COc1cc(Nc2ncnc(-n3c(NC(C)=O)nc4ccccc43)n2)cc(OC)c1OC` [Compound 334], the IC50 against Hck-1 is over 10.3 µM; at EGFR, over 10.3 µM; at Zap-70, over 10.3 µM; at Ret-1 it was 0.919 to 5.51 µM; against Src, over 10.3 µM; on Tek, over 10.3 µM. In addition, the IC50 is 5.51 to 8.04 µM on EPHB4, 8.04 to 10.3 µM at Lck and over 10.3 µM at Lyn.

With `COc1cc(Nc2ncnc(Nc3ccc(OCc4ccccc4)cc3)n2)cc(OC)c1` [Compound 156], the IC50 against Hck-1 was over 10.5 µM; on EGFR it was under 0.931 µM; on Zap-70 it was over 10.5 µM; on Ret-1 it was over 10.5 µM; on Src it was over 10.5 µM; on Tek it was over 10.5 µM. Further, the values for the IC50 at EPHB4, at Lck and against Lyn were over 10.5 µM, 8.15 to 10.5 µM and 5.59 to 8.15 µM, respectively.

For the molecule `COc1cc(Nc2ncnc(Nc3cccc(F)c3)n2)cc(OC)c1OC` [Compound 304], the IC50 against Hck-1 is 6.46 to 9.42 µM; at EGFR, under 1.08 µM; at Zap-70, over 12.1 µM; at Ret-1, under 1.08 µM; against Src, under 1.08 µM; at Tek, over 12.1 µM. In addition, the IC50 at EPHB4 was 1.08 to 6.46 µM; on Lck, under 1.08 µM; at Lyn it was under 1.08 µM.
